Results: US6727237B2, “Inhibitors of bacterial NAD synthetase” (priority 1998, dated 2004)
Values after ≈ are worked out from the molar mass of the structure shown. Values joined by “and” are separate entries in the source; they are usually repeats but may differ in a detail not shown here. Equal values may be shown once. Read-outs that look alike come from different tables or passages of the source.

Assays:
[1] = target: T1, bacterial NAD synthetase enzyme (Bacillus subtilis, UniProt P08164); assay: biochemical; format: biochemical
T1 sequence (P08164 2-272 limits assumed): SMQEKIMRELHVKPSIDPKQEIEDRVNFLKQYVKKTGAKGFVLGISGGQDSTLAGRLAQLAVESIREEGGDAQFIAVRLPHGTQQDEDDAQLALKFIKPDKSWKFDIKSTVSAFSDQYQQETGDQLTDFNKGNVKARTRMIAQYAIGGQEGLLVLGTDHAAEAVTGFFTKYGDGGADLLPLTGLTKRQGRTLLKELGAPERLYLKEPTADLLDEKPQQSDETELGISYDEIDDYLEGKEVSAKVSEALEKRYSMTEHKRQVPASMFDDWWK

B. subtilis = assay: Dose response of bacterial growth inhibition, MIC85; settings: Bacillus subtilis, read-out: MIC85
[2] = system: Staphylococcus epidermitis; assay: as above; settings: for MIC: Staphylococcus, read-out: MIC85; for MIC85: minimum inhibitory concentration to achieve 85% inhibition, S. epidermitis
[3] = system: Staphylococcus epidermitis; assay: Bacterial growth inhibition screen in LB media (absorbance 595 nm), percent inhibition; settings: for inhibition of growth at 100 µM / inhibition of growth at 10 µM: Staphylococcus, read-out: % Inhibition, S. epidermitis; for % Inhibition: S. epidermitis
[4] = compound at 0.2 mM (Table 312A)
[5] = lead compounds (Table 318A), read-out: IC 50

Row | SMILES | IC50 [1] [µM] | MIC [2] [µM] | inhibition at 100 µM [1] [%] | MIC85 [2] [µM] | % Inhibition ([3]; concentration screened 10 uM) | also measured
1 | COC(=O)c1cc2cc(OCc3ccccc3)ccc2n1CCCCCCCCCOC(=O)Cc1ccc([N+](C)(C)C)cc1 [Compound 990] | 20 |  |  |  |  | inhibition at 200 µM [1]: 92.2%; MIC (B. subtilis): 10 µM
2 | COC(=O)c1cc2cc(OCc3ccccc3)ccc2n1CCCCCCC[n+]1ccccc1 [Compound 229] | 25 | 3 | 99.3 |  |  | inhibition of growth at 100 µM ([3]; concentration screened 100 uM): 98%
3 | C[n+]1cccc(C(=O)OCCCCCCCn2ccc3cc(OCc4ccccc4)ccc32)c1 [Compound 768] | 30 | 10 | 98.6 |  |  | inhibition of growth at 100 µM ([3]; concentration screened 100 uM): 96.1%
4 | Cc1ccc2[nH]c(CCCCC[n+]3ccccc3)cc2c1 [Compound 296] |  |  |  | 30 | 87.47% | % Inhibition [1, 4]: 16.79%
5 | COC(=O)c1cc2cc(OCc3ccccc3)ccc2n1CCCCCCCOC(=O)c1ccc[n+](C)c1 [Compound 976] | 20 |  | 71 |  |  | MIC (B. subtilis): 10 µM
6 | CN(C)c1ccc(CC(=O)OCCCCCCCCCn2ccc3cc([N+](=O)[O-])ccc32)cc1 [Compound 853] |  |  |  | 30 (≈ 14 µg/mL) | 98.58% | % Inhibition ([1]; compound at 0.1 mM (Table 314)): 73.46%; IC50 [1, 5]: 45 µM
7 | O=C(OCCCCCn1ccc2cc([N+](=O)[O-])ccc21)c1cnc2ccccc2c1 [Compound 831] |  |  |  | 30 (≈ 12.1 µg/mL) | 84.68% | % Inhibition ([1]; compound at 0.1 mM (Table 314)): 26.21%
8 | FC(F)(F)c1ccc2cc(CCCCCC[n+]3ccccc3)[nH]c2c1 [Compound 291] |  |  |  | 30 |  | % Inhibition [1, 4]: 71.94%; % Inhibition ([3]; concentration screened 100 uM): 100.00%
9 | C[n+]1cccc(C(=O)OCCCCCCn2ccc3cc(OCc4ccccc4)ccc32)c1 [Compound 767] | 60 | 10 | 96 |  |  | inhibition of growth at 100 µM ([3]; concentration screened 100 uM): 91.8%
10 | COC(=O)c1cc2ccccc2n1CCCCCCCCC[n+]1ccccc1 [Compound 182] | 60 | 10 | 95.4 |  |  | inhibition of growth at 100 µM ([3]; concentration screened 100 uM): 97.7%
11 | COC(=O)c1ccc2ccn(CCCCCCC[n+]3ccccc3)c2c1 [Compound 213] | 65 | 10 |  |  |  | inhibition at 200 µM [1]: 90.7%; inhibition of growth at 10 µM ([3]; concentration screened 10 uM): 97.4%
12 | COc1ccc2c(ccn2CCCCCCCCOC(=O)Cc2ccc([N+](C)(C)C)cc2)c1 [Compound 744] |  |  |  | 30 | 97.74% | % Inhibition [1, 4]: 95.85%
13 | C[N+](C)(C)c1ccc(CC(=O)OCCCCCCn2ccc3cc(OCc4ccccc4)ccc32)cc1 [Compound 747] | 70 | 10 | 97.8 |  |  | inhibition of growth at 10 µM ([3]; concentration screened 10 uM): 97.9%
14 | C[n+]1cccc(C(=O)OCCCCCn2ccc3cc(OCc4ccccc4)ccc32)c1 [Compound 766] | 65 | 30 | 91.2 |  |  | inhibition of growth at 10 µM ([3]; concentration screened 10 uM): 90.5%
15 | COc1ccc2c(ccn2CCCCCCCOC(=O)Cc2ccc([N+](C)(C)C)cc2)c1 [Compound 743] |  |  |  | 10 | 97.67% | % Inhibition ([1]; compound at 0.1 mM (Table 314)): 94.10%
16 | c1ccc(C(c2ccccc2)(c2ccccc2)c2ccc3[nH]c(CCCC[n+]4ccc5ccccc5c4)cc3c2)cc1 [Compound 553] |  |  |  | 10 | 94.92% | % Inhibition ([1]; compound at 0.1 mM (Table 314)): 49.49%
17 | c1ccc2c[n+](CCCCCc3cc4ccccc4[nH]3)ccc2c1 [Compound 500] |  |  |  | 30 |  | % Inhibition ([1]; compound at 0.1 mM (Table 314)): 18.25%; % Inhibition ([3]; concentration screened 100 uM): 99.14%
18 | c1ccc(C(c2ccccc2)(c2ccccc2)c2ccc3[nH]c(CCC[n+]4ccc5ccccc5c4)cc3c2)cc1 [Compound 552] |  |  |  | 30 | 50.00% | % Inhibition ([1]; compound at 0.1 mM (Table 314)): 15.24%
19 | COC(=O)c1ccc2ccn(CCCCCCCCC[n+]3cccc(C(=O)OC)c3)c2c1 [Compound 222] |  |  |  | 30 | 98.50% | % Inhibition [1, 4]: 52.98%

Row | SMILES | IC50 [1] [µM] | MIC [2] [µM] | inhibition at 100 µM [1] [%] | MIC85 [2] [µM] | % Inhibition ([3]; concentration screened 10 uM) | also measured
20 | Cc1ccc2[nH]c(CCCCCC[n+]3ccccc3)cc2c1 [Compound 297] |  |  |  | 30 |  | % Inhibition ([1]; compound at 0.1 mM (Table 314)): 50.83%; % Inhibition ([3]; concentration screened 100 uM): 100.00%
21 | FC(F)(F)c1ccc2[nH]c(CCCCC[n+]3ccccc3)cc2c1 [Compound 362] |  |  |  | 30 |  | % Inhibition ([1]; compound at 0.1 mM (Table 314)): 8.31%; % Inhibition ([3]; concentration screened 100 uM): 100.00%
22 | CCCCc1ccc2[nH]c(CCCCCC[n+]3ccccc3)cc2c1 [Compound 315] | 100 | 30 | 77.2 |  |  | inhibition of growth at 100 µM ([3]; concentration screened 100 uM): 100%
23 | FC(F)(F)c1ccc2[nH]c(CCCCCC[n+]3ccccc3)cc2c1 [Compound 363] |  |  |  | 30 |  | % Inhibition [1, 4]: 75.01%; % Inhibition ([3]; concentration screened 100 uM): 100.00%
24 | C[N+](C)(C)c1ccc(CC(=O)OCCCCCCCn2ccc3cc(OCc4ccccc4)ccc32)cc1 [Compound 748] |  | 10 | 98.4 |  |  | IC50 [1, 5]: 30 µM; inhibition of growth at 100 µM ([3]; concentration screened 100 uM): 98.4%
25 | COC(=O)c1ccc[n+](CCCCCCCCn2ccc3cc([N+](=O)[O-])ccc32)c1 [Compound 13] | 50 | 30 |  |  |  | inhibition at 200 µM [1]: 80.8%; inhibition of growth at 10 µM ([3]; concentration screened 10 uM): 98.5%
26 | COC(=O)c1cc2cc(OC)ccc2n1CCCCCCCCC[n+]1ccccc1 [Compound 246] |  |  |  | 30 | 90.26% | % Inhibition [1, 4]: 92.19%
27 | C[N+](C)(C)c1ccc(CC(=O)OCCCCCn2ccc3cc(OCc4ccccc4)ccc32)cc1 [Compound 746] | 50 | 10 | 91.3 |  |  | inhibition of growth at 10 µM ([3]; concentration screened 10 uM): 96.8%
28 | COc1ccc2[nH]c(CCCCC[n+]3ccccc3)cc2c1 [Compound 374] |  |  |  | 30 |  | % Inhibition ([1]; compound at 0.1 mM (Table 314)): 31.84%; % Inhibition ([3]; concentration screened 100 uM): 100.00%
29 | C[N+](C)(C)c1ccc(CC(=O)OCCCCn2ccc3cc(OCc4ccccc4)ccc32)cc1 [Compound 745] | 85 | 30 |  |  |  | inhibition at 200 µM [1]: 85.4%; inhibition of growth at 10 µM ([3]; concentration screened 10 uM): 95.1%
30 | C[n+]1cc(C(=O)OCCCCCCn2ccc3cc([N+](=O)[O-])ccc32)cc2ccccc21 [Compound 832] | 90 | 30 | 78.6 |  |  | inhibition of growth at 10 µM ([3]; concentration screened 10 uM): 94.7%
31 | COC(=O)c1ccc2ccn(CCCCCCCCC[n+]3ccccc3)c2c1 [Compound 214] | 30 | 10 | 82.8 |  |  | inhibition of growth at 100 µM ([3]; concentration screened 100 uM): 98.1%
32 | COC(=O)c1ccc[n+](CCCCCCCCCn2c(C(=O)OC)cc3ccccc32)c1 [Compound 190] | 50 | 3 |  |  |  | inhibition of growth at 100 µM ([3]; concentration screened 100 uM): 97.7%
33 | COC(=O)c1ccc[n+](CCCCCCCCCn2ccc3cc([N+](=O)[O-])ccc32)c1 [Compound 14] |  |  |  | 10 | 98.58% and 96.19% | % Inhibition [1, 4]: 78.85%
34 | COC(=O)c1cc2cc(OCc3ccccc3)ccc2n1CCC[n+]1ccccc1 [Compound 227] |  |  |  | 30 | 96.46% | % Inhibition [1, 4]: 91.19%
35 | Cc1ccc2[nH]c(CCCC[n+]3ccccc3)cc2c1 [Compound 295] |  |  |  | 10 | 94.48% | % Inhibition ([1]; compound at 0.1 mM (Table 314)): 25.05%
36 | Cc1ccc2[nH]c(CCCCC[n+]3ccc4ccccc4c3)cc2c1 [Compound 512] |  |  |  | 30 |  | % Inhibition [1, 4]: 17.50%; % Inhibition ([3]; concentration screened 100 uM): 99.71%
37 | FC(F)(F)c1ccc2cc(CCC[n+]3ccccc3)[nH]c2c1 [Compound 288] |  |  |  | 30 | 99.65% | % Inhibition ([1]; compound at 0.1 mM (Table 314)): 42.38%
